pEC50: −log10 of the molar value.

13 molecules from BindingDB's records for doi:10.7270/Q2Q81BH4 (Nmmlsc, 2009) can be followed below.

The target in the first assay is T1, Mitogen-activated protein kinase kinase kinase 3 (Homo sapiens, UniProt Q99759).
T1 sequence (Q99759 whole entry): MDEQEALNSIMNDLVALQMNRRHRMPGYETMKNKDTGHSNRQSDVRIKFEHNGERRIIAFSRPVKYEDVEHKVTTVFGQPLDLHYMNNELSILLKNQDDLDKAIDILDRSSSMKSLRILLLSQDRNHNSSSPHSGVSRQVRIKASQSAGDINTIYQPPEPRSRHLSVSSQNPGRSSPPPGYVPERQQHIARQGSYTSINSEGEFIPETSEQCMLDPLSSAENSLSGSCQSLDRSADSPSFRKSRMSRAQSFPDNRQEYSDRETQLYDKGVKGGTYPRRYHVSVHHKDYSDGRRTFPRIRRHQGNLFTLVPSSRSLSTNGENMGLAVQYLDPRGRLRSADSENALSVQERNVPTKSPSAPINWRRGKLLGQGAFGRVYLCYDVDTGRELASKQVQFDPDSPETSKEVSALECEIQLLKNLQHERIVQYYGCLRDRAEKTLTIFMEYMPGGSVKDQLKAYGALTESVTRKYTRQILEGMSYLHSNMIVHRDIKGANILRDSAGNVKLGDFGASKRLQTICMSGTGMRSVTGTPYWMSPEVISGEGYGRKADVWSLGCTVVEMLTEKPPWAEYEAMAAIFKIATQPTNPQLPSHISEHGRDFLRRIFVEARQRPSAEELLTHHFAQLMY
As to the kind of experiment: inhibitors of MEK5 binding to MEKK3, SAR follow-up, multiplex assay, wild-type MEKK3 (AID 2145).
Conditions: not given
In general, pEC50 refers to the negative decadic logarithm of the EC50, by convention in mol/L. Higher therefore signals a low EC50. With `c1ccc(-c2nnc3sc(-c4ccc[nH]4)nn23)nc1`, the pEC50 was < 4.52.

Turning to `c1ccc(-c2nnc3sc(C4CCCCCC4)nn23)nc1`, the pEC50 is < 4.52.

Turning to `COc1cc([N+](=O)[O-])ccc1-c1nn2c(-c3ccccn3)nnc2s1`, the pEC50 was < 4.52.

As for `COc1cccc(-c2nn3c(-c4ccccn4)nnc3s2)c1`, the pEC50 is < 4.52.

For `c1csc(Cc2nn3c(-c4ccncc4)nnc3s2)c1`, the pEC50 is < 4.52.

In the case of `COc1cc([N+](=O)[O-])ccc1-c1nn2c(-c3ccco3)nnc2s1` [3-(2-furanyl)-6-(2-methoxy-4-nitrophenyl)-[1,2,4]triazolo[3,4-b][1,3,4]thiadiazole], the pEC50 is < 4.52.

As to `COc1ccc(-c2nn3c(-c4ccccn4)nnc3s2)cc1OC` [6-(3,4-dimethoxyphenyl)-3-(2-pyridinyl)-[1,2,4]triazolo[3,4-b][1,3,4]thiadiazole], the pEC50 was < 4.52.

With `CCOc1cccc(-c2nn3c(-c4ccco4)nnc3s2)c1` [6-(3-ethoxyphenyl)-3-(2-furanyl)-[1,2,4]triazolo[3,4-b][1,3,4]thiadiazole], the pEC50 was < 4.52.

Turning to `c1coc(-c2nnc3sc(C4CCCCCC4)nn23)c1` [6-cycloheptyl-3-(2-furanyl)-[1,2,4]triazolo[3,4-b][1,3,4]thiadiazole], the pEC50 is < 4.52.

With `c1coc(-c2nnc3sc(C4CCCCC4)nn23)c1` [6-cyclohexyl-3-(2-furanyl)-[1,2,4]triazolo[3,4-b][1,3,4]thiadiazole], the pEC50 was < 4.52.

In the case of `c1c[nH]c(-c2nn3c(-c4ccco4)nnc3s2)c1` [(6Z)-3-(2-furanyl)-6-(2-pyrrolylidene)-5H-[1,2,4]triazolo[3,4-b][1,3,4]thiadiazole], the pEC50 is < 4.52.

`c1ccc(-c2nnc3sc(C4CCCCC4)nn23)nc1` [VU0364704-1]: the pEC50 was < 4.52.

The assay is the same for the next values; noted with them: inactive by the depositor's call.
The molecule `CCOc1cccc(-c2nn3c(-c4cccs4)nnc3s2)c1` [6-(3-ethoxyphenyl)-3-thiophen-2-yl-[1,2,4]triazolo[3,4-b][1,3,4]thiadiazole] gave a pEC50 of 5.96.
